Assay [1] relates to vascular reactivity to methoxamine. In words: In vivo effect on endotoxin treated pithed rat. The note with it: dose 150 mg/kg/h; endotoxin 300 μg/kg/h; control 79 ± 9, EDTX 278 ± 34. How it is done:
10-In vivo effect on endotoxin treated pithed rat:
As previously reported, the association of an inhibitor of NO synthase and an inhibitor of cyclooxygenase has a synergistic effect to restore the blood pressure and vascular reactivity in an endotoxinic or septic animal.
Male Sprague Dawley rats (body weight 280-320 g) were pithed. One hour after pithing, animals were given endotoxin (EDTX, Escherichia Coli, lipopolysaccharide, O III, B4 =300 μg/kg/h) for 60 minutes. […]

For assay [2], the target named is T1, cyclooxygenase (Oryctolagus cuniculus, UniProt O97554).
T1 construct: arachidonic acid induced aggregation of washed rabbit platelets; endogenous in cells; host or cells: washed platelets of male New Zealand rabbits
T1 sequence (O97554 31-606): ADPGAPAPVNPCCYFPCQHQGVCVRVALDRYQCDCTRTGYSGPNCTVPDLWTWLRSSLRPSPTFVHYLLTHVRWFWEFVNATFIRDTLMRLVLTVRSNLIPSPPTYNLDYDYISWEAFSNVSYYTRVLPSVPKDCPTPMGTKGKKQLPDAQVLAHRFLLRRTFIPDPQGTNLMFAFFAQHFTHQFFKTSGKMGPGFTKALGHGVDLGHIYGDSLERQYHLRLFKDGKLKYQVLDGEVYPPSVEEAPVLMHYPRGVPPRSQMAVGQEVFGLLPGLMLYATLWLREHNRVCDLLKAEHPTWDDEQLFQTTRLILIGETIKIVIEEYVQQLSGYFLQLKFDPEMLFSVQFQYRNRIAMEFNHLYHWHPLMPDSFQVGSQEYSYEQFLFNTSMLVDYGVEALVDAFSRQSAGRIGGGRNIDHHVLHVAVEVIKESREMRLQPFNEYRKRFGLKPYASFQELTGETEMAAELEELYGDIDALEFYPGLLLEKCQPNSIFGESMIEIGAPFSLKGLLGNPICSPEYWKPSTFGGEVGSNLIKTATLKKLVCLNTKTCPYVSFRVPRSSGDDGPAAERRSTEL
In words: In vitro effect on arachidonic acid induced aggregation of washed rabbit platelets. In kind it is cell-based. The note with it: arachidonic acid 0.5 mM, read-out: IC50 (arachidonic acid induced platelet aggregation).
Protocol: This protocol was used to assay the effect of the compounds on the cyclooxygenase. […] Blood was taken from the auricular artery of male New Zealand rabbit (2.5 kg mean body weight) on ACD (citric acid/sodium citrate/dextrose) as anticoagulant. The washed platelets were prepared and then transferred in the cuvet of the aggregometer (Chronolog aggregometer Coultronics).

Assay [3] deals with T2, cyclooxygenase (Mus musculus, UniProt Q05769).
T2 construct: main cyclooxygenase products produced by J774A1 cell line; endogenous in cells
T2 sequence (Q05769 18-604): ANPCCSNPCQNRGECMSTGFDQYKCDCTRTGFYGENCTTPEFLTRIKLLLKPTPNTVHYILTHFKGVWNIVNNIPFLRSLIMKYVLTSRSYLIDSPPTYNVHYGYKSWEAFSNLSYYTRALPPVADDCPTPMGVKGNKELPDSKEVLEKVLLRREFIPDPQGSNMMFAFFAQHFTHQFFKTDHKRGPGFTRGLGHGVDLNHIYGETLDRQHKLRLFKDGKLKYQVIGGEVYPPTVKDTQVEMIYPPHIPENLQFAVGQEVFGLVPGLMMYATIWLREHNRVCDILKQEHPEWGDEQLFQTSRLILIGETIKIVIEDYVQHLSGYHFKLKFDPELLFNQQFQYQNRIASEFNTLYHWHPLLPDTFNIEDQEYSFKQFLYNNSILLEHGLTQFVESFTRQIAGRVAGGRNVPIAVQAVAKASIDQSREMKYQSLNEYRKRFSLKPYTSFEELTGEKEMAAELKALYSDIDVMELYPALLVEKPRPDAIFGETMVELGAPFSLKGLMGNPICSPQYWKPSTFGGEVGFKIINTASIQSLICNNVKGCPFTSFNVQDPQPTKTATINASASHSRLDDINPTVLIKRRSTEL
In words: In vitro effect on prostaglandin (6 keto PGF1α) production induced by LPS+IFNγ on J774A1 monocyte/macrophage cell line. The note with it: LPS+IFNγ, J774A1 culture media. In kind it is cell-based, murine. Here is the method: 6-In vitro effect on prostaglandin production induced by LPS+IFNγ on J774A1 monocyte/macrophage cell line:
Levels of one of the main cyclooxygenase products produced by J774A1 cell line (i.e.: 6 keto PGF1α) the stable metabolite of PGI2 were assessed in the culture media by a specific radioimmunoassay (NEN, Kit NEK 025).

For orientation: IC50 means the point on the concentration scale where inhibition reaches its midpoint. `CC(=O)Oc1ccccc1C(=O)O` [aspirin, acetylsalicylic acid, reference compound]: the “vascular reactivity to methoxamine DE50” value in assay [1] amounted to 136 ± 29 µg/kg. In addition, the IC50 on cyclooxygenase [2] turned out to be 200 µM. Further, the “effect on release of 6 keto PGF1α” value on cyclooxygenase [3] was “abolished in a dose dependent manner”.

For the origin of these results see patent US5360925A, “Dual inhibitors of no synthase and cyclooxygenase, process for their preparation and therapeutical compositions containing them” (priority 1992, dated 1994).
